Entries after “also recorded” stand apart in the source; their conditions may differ.
Legend:
[1] = test system: hgp100-expressing vaccinia virus; conditions: mouse, in vivo
[2] = mouse, in vivo
naïve CD4+ T cells = experiment: Extracellular Acidification Rate on instantaneous T cell activation (Seahorse); format: cell-based, mouse; conditions: αCD3/CD28 injection in the presence of vehicle or CB839
Procedure: (§1) Experiments were carried out on Agilent Seahorse XF96 bioanalyzer (Agilent). Briefly, wild type CD4+ cells were isolated as previous and activated for 3 days on CD3/CD28 as previously described, or skewed to Th1 and Th17 subsets as described above. T cells were spun onto XF96 Cell-Tak (BD Bioscience, Cat #: 354240) coated plates and rested in Seahorse XF RPMI 1640 media supplemented with glutamine, sodium pyruvate, and glucose. For immediate metabolic response, CB839 and UK5099 were injected separately or in combination, and OCR and ECAR measured.
(§2) Experiments were carried out on Agilent Seahorse XF96 bioanalyzer (Agilent). Briefly, wild type CD4+ cells were isolated as previous and activated for 3 days on αCD3/CD28 coated plates as previously described, or skewed to Th1 and Th17 subsets as described above. T cells were isolated and spun onto XF96 Cell-Tak (BD Bioscience, Cat #: 354240) coated plates and rested in Seahorse XF RPMI 1640 media supplemented with glutamine, sodium pyruvate, and glucose. For immediate metabolic response, 1 μM CB839 and 5 μM UK5099 (Cat #: PZ0160-5MG) were injected separately or in combination, and OCR and ECAR measured. For activation response, 1 uM CB839 was injected into IL-7 maintained naïve CD4+ T cells in seahorse medium and allowed to incubate for 20 minutes, followed by soluble αCD3/CD28 injection.

Th17 cells [3] = experiment: Nutrient uptake and secretion by NMR; format: cell-based, mouse
CD8 T cells = CD8 T cells activated on αCD3/CD28 + IL2, flow cytometry
Th17 cells [4] = experiment: 3H-2-deoxyglucose uptake and ECAR, Th17; format: cell-based, mouse
Procedure: Glucose uptake assays were performed as described elsewhere (see, e.g., Macintyre et al., 2014 Cell Metab. 20(1):61-72). Naïve CD4+ T cells were differentiated into Th1 and Th17 cells, in triplicate, in the presence or absence of CB839 over 5 days and spun down after reisolation using CD4 kit as previously described. Cells were washed 2× in PBS, counted, then rested in 1 mL Kreb's Ringers HEPES (KRH) for 10 minutes. Cells were spun and resuspended to 5×10^5 cells/50 uL KRH for glucose uptake assay. Briefly, cells were […]. Cells incubated for 10 minutes at 37° C. Immediately after incubation, reaction was quenched with 200 μM phloretin (Calbiochem, Cat #: 524488). Cells were spun, washed, and then resuspended in scint fluid for counting on Beckman-Coulter scintillation counter. Pathway analysis of altered metabolites was performed using Metaboanalyst 3.0 (metaboanalyst. ca/faces/home.xhtml).
as §1
Glucose uptake assays were performed as previously described (Macintyre et al.,2014). Naïve CD4+ T cells were differentiated into Th1 and Th17 cells, in triplicate, in the presence or absence of CB839 over five days and spun down after reisolation using CD4 kit as previously described. At day 3 and 5, cells were removed, washed twice in PBS, counted, then rested in 1 mL Kreb's Ringers HEPES (KRH) for at least 10 minutes. Cells were spun and resuspended to 5×10^5 cells/50 μL KRH for glucose uptake assay. Briefly, 3H-2-deoxyglucose was suspended in KRH bubble layered in oil, and cells were added to this bubble. Cells were incubated for 10 minutes at 37° C. Immediately after incubation, reaction was quenched with 200 μM phloretin (Calbiochem, Cat #: 524488). Cells were spun, washed, and then resuspended in scintilation fluid for counting on Beckman-Coulter scintillation counter (3H, 1 min/sample read).
as §2

Th1 cells = experiment: CD4 T cells in Th1 skewing conditions, flow cytometry
Th17 cells [5] = experiment: CD4 T cells in Th17 skewing conditions, flow cytometry
[6] = CD8 T cells, five days stimulation
[7] = Th17, day 5, listed as GLS inhibitor

SMILES: O=C(Cc1cccc(OC(F)(F)F)c1)Nc1ccc(CCCCc2nnc(NC(=O)Cc3ccccn3)s2)nn1 [CB839]
- time increased cell numbers persisted [1]: greater than 5 weeks
- accumulation / persistence of transferred CD8 T cells [2]: accumulated to greater numbers in vivo by day 7; also recorded: enhances T cell persistence
- early events in T cell activation (ECAR) (naïve CD4+ T cells): did not to be affected
- glutamine uptake and glutamate, pyruvate, and lactate secretion (Th17 cells [3]): reduced upon GLS inhibition
- Granzyme B (CD8 T cells; CD8 T cells, 4-5 days stimulation): increased levels of Granzyme B
- Eomes (CD8 T cells; [6]): increased levels
- Perforin (CD8 T cells; [6]): increased
- Tbet (CD8 T cells; [6]): increased levels
- markers of proliferation (CD8 T cells; [6]): increased levels
- portion of CD8 T cells expressing inhibitory receptors Lag3 and PD-1 (CD8 T cells; [6]): increased
- phospho-S6 (CD8 T cells; CTL in the presence of IL2): enhanced phospho-S6
- glucose uptake (Th17 cells [4]; Th17, day 5): decreased
- media acidification (ECAR, glycolytic flux) (Th17 cells [4]; Th17, day 5): decreased
- glucose uptake (Th17 cells [4]; [7]): remained impaired
- media acidification (ECAR, glycolytic flux) (Th17 cells [4]; [7]): remained impaired
- glucose uptake (Th17 cells [4]; Th17, day three): reduced
- Myc protein (Th1 cells; Th1): modestly increased Myc
- H3K27 tri-methylation, initially (Th1 cells; Th1, Day 3): increased H3K27 tri-methylation
- proliferation (Th1 cells; Th1, after three days in culture): impaired proliferation
- ROS (DCFDA) (Th1 cells; Th1, day 5): ROS increased
- expression of KLRG1 and PD1 (Th1 cells; Th1, day 5): increased expression of KLRG1 and PD1
- global H3K27 trimethylation (Th1 cells; Th1, day 5, normalized to total H3): decreased
- phospho-S6 (Th1 cells; Th1, day 5, with IL2): increased phosphor-S6; also recorded: increased phospho-S6
- ROS (DCFDA) (Th1 cells; Th1, day 5, listed as CD839): increased ROS
- global H3K4 trimethylation (Th1 cells; Th1, day five): decreased; also recorded: reduced
- proliferation (Th1 cells; Th1, day five): partially recovered proliferation by day five
- total rRNA levels per cell (Th1 cells; Th1, day five): increased
- H3K27 methylation in the absence of IL2 (Th1 cells; Th1 skewing conditions, no IL2): hypermethylated H3K27
- Th1 cytokine production and differentiation (Th1 cells; Th1 skewing, 5 days, CB839 vs vehicle): increased; also recorded: appeared to increase Th1 cytokine secretion
- induction of Treg (Foxp3) (Th1 cells; under Th1 conditions): failed to do so
- Myc protein (Th17 cells [5]; Th17): modestly increased Myc in Th1 but not Th17 cells
- proliferation (Th17 cells [5]; Th17): decreased cytokine production and proliferation only from Th17 cells
- H3K27 tri-methylation, initially (Th17 cells [5]; Th17, Day 3): increased H3K27 tri-methylation
- proliferation (Th17 cells [5]; Th17, after three days in culture): impaired proliferation
- ROS (DCFDA) (Th17 cells [5]; Th17, day 5): ROS increased
- expression of KLRG1 and PD1 (Th17 cells [5]; Th17, day 5): decreased or unchanged
- global H3K27 trimethylation (Th17 cells [5]; Th17, day 5, normalized to total H3): increased
- phospho-S6 (Th17 cells [5]; Th17, day 5, with IL2): decreased phosphor-S6; also recorded: decreased phospho-S6
- ROS (DCFDA) (Th17 cells [5]; Th17, day 5, listed as CD839): increased ROS
- global H3K4 trimethylation (Th17 cells [5]; Th17, day five): increased
- total rRNA levels per cell (Th17 cells [5]; Th17, day five): decreased
- Th17 cytokine production and differentiation (Th17 cells [5]; Th17 skewing, 5 days, CB839 vs vehicle): decreased cytokine production and proliferation only from Th17 cells
- induction of Treg (Foxp3) (Th17 cells [5]; under Th17 conditions): failed to do so

Reference: US20190269705A1, “METHODS AND MATERIALS FOR TREATING GRAFT VERSUS HOST DISEASE” (Regents of the University of Minnesota, priority 2017, published 2019)
